Laboratory results taken from patent US20260297042A1, “BIARYLAMIDE DERIVATIVES AND THEIR USE AS PKMYT1 INHIBITORS” (CANCER RESEARCH TECHNOLOGY LIMITED, priority 2023, published 2026).
Where a name gives a salt, the structure may show the parent alone.

Experiments:
[1] = molecular target: T1, Human PKMYT1 (Homo sapiens, UniProt Q99640); test: PKMYT1 biochemical ADP-Glo enzymatic assay; details: ADP-Glo
T1 construct: Human PKMYT1 75-362 was cloned as a TEV cleavable 6xHis fusion; 6xHis (TEV cleavable) (cleaved yes); made in house; host or cells: bacterial cells
T1 sequence (Q99640 75-362): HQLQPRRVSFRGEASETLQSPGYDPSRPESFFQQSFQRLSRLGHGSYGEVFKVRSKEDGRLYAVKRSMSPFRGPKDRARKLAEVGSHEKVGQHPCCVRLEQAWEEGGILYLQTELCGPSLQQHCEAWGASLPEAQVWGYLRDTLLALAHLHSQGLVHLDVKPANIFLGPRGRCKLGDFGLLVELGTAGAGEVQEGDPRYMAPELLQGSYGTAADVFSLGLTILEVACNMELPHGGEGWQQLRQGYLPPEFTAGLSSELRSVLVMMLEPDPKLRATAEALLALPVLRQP
Outline: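 Compounds were titrated over 10 points (3-fold steps), then 15 nM purified PKMYT1 kinase domain (aa 75-362) and 500 µM ATP were added in pH 7.5 HEPES buffer. After 60 min at 26 °C, remaining ATP was depleted and ADP converted to luminescence for IC50 fitting.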

[2] = molecular target: T2, WEE1 (Homo sapiens, UniProt P30291); test: Selectivity versus WEE1 assay (ADP-Glo enzymatic assay); format: biochemical; details: for IC50: ADP-Glo; for PKMYT1 vs. WEE1 selectivity: fold difference in selectivity for PKMYT1 over WEE1
T2 construct: purchased Thermo Fisher PR7373A
T2 sequence (P30291 whole entry): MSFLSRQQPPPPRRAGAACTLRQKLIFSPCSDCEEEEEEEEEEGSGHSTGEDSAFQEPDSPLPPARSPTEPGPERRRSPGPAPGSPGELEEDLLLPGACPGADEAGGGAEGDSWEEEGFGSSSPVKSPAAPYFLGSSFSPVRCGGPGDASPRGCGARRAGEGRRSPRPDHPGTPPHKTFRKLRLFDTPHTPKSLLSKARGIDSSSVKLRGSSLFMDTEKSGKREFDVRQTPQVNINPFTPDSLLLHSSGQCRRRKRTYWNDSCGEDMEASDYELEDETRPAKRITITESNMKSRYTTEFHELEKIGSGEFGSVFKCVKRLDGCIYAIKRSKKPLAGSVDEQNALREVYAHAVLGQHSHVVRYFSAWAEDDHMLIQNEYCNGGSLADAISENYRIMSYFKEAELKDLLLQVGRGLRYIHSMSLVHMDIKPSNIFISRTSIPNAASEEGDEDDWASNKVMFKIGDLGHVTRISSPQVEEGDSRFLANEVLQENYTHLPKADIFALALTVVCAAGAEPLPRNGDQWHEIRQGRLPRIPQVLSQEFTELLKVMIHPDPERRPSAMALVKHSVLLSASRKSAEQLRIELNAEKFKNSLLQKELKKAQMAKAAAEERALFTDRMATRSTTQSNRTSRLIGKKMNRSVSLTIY
Outline: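 Compounds were pre-dispensed, enzyme (15 nM final) was added in pH 7.5 HEPES buffer, and ATP ([…]) then started a 60 min incubation at 26° C. Afterwards ADP-Glo reagents were added in turn and luminescence was measured to derive IC50 values.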

[3] = PKMYT1 kinase domain 15 nM, banded values
[4] = 15 nM PKMYT1 kinase domain, 500 µM ATP, 60 minutes at 26° C., banded
[5] = 15 nM WEE1, 60 minutes at 26° C., banded
[6] = banded, ">N" = at least in this band but could be higher

Row | Compound | IC50 [1, 3] | IC50 ([2]; WEE1 15 nM, banded values) | PKMYT1 vs. WEE1 selectivity ([2]; banded) | IC50 [1, 4] | IC50 [2, 5] | PKMYT1 vs. WEE1 selectivity [2, 6]
1 | Cc1ccc(O)c(Br)c1NC(=O)c1cnc(Nc2ccn(CC(=O)N3CCCC3)n2)s1 [BAA-476] | < 50 nM | 1000 to 11000 nM | X (100-<1000 fold) |  |  | 
2 | Cc1ccc(O)c(C)c1NC(=O)c1cnc(Nc2cc(C)n(CC(=O)N3CCCC3)n2)s1 [BAA-203] |  |  |  | < 50 nM | > 11000 nM | Y (1000-5000 fold)
3 | O=C(Nc1c(Cl)ccc(O)c1F)c1cnc(Nc2ccn(CC(=O)N3CCCC3)n2)s1 [BAA-481, N-(6-Chloro-2-fluoro-3-hydroxy-phenyl)-2-[[1-(2-oxo-2-pyrrolidin-1-yl-ethyl)pyrazol-3-yl]amino]thiazole-5-carboxamide] | < 50 nM | > 11000 nM | Y (1000-5000 fold) |  |  | 
4 | Cc1ccc(O)c(C)c1NC(=O)c1cnc(Nc2ccn(CC(=O)NCC3CCNCC3)n2)s1 [BAA-226] |  |  |  | < 50 nM | > 11000 nM | X (100-<1000 fold)
5 | Cc1ccc(O)c(C)c1NC(=O)c1cnc(Nc2cc(C(C)(C)C)nn2-c2ccccc2)s1 [BAA-359, 2-((3-(tert-butyl)-1-phenyl-1H-pyrazol-5-yl)amino)-N-(3-hydroxy-2,6-dimethylphenyl)thiazole-5-carboxamide] |  |  |  | 1000 to 11000 nM | > 11000 nM | W (10-<100 fold)
6 | Cc1c(O)ccc(Cl)c1NC(=O)c1cnc(Nc2ccn(C)n2)s1 [BAA-474, N-(6-Chloro-3-hydroxy-2-methyl-phenyl)-2-[(1-methylpyrazol-3-yl)amino]thiazole-5-carboxamide] | 50 to 1000 nM | > 11000 nM | X (100-<1000 fold) |  |  | 
7 | Cc1ccc(O)c(C)c1NC(=O)c1cnc(Nc2n[nH]c3cc(F)cc(F)c23)s1 [BAA-452, 2-((4,6-difluoro-1H-indazol-3-yl)amino)-N-(3-hydroxy-2,6-dimethylphenyl)thiazole-5-carboxamide] | 50 to 1000 nM | > 11000 nM | X (100-<1000 fold) |  |  | 
8 | Cc1cn(C2CNC2)nc1Nc1ncc(C(=O)Nc2c(C)ccc(O)c2C)s1 [BAA-273, 2-((1-(azetidin-3-yl)-4-methyl-1H-pyrazol-3-yl)amino)-N-(3-hydroxy-2,6-dimethylphenyl)thiazole-5-carboxamide hydrochloride] |  |  |  | < 50 nM | 50 to 1000 nM | W (10-<100 fold)
9 | Cc1ccc(O)c(C)c1NC(=O)c1cnc(NCc2cccc(O)c2)s1 [BAA-346, N-(3-hydroxy-2,6-dimethylphenyl)-2-((3-hydroxybenzyl)amino)thiazole-5-carboxamide] |  |  |  | < 50 nM | > 11000 nM | Y (1000-5000 fold)
10 | CCN(CC)C(=O)N1CC[C@@H](n2ccc(Nc3ncc(C(=O)Nc4c(C)ccc(O)c4C)s3)n2)C1 [BAA-112, 2-[[1-[(3R)-1-(Diethylcarbamoyl)pyrrolidin-3-yl]pyrazol-3-yl]amino]-N-(3-hydroxy-2,6-dimethyl-phenyl)thiazole-5-carboxamide] |  |  |  | 50 to 1000 nM | > 11000 nM | >Y (1000-5000 fold)
11 | CCNc1ncc(C(=O)Nc2c(C)ccc(O)c2C)s1 [BAA-060, 2-(ethylamino)-N-(3-hydroxy-2,6-dimethyl-phenyl)thiazole-5-carboxamide] |  |  |  | 50 to 1000 nM | > 11000 nM | >X (100-<1000 fold)
12 | Cc1ccc(O)c(C)c1NC(=O)c1cnc(Nc2nn(C)c3cccc(F)c23)s1 [BAA-444, 2-((4-fluoro-1-methyl-1H-indazol-3-yl)amino)-N-(3-hydroxy-2,6-dimethylphenyl)thiazole-5-carboxamide] | < 50 nM | > 11000 nM | X (100-<1000 fold) |  |  | 
13 | CC(=O)Nc1ccc(Nc2ncc(C(=O)Nc3c(C)ccc(O)c3C)s2)cc1 [BAA-513, 2-((4-Acetamidophenyl)amino)-N-(3-hydroxy-2,6-dimethylphenyl)thiazole-5-carboxamide] | < 50 nM | 1000 to 11000 nM | X (100-<1000 fold) |  |  | 
14 | Cc1ccc(O)c(C)c1NC(=O)c1cnc(Nc2cc3cc(F)ccc3cn2)s1 [BAA-290, 2-((6-fluoroisoquinolin-3-yl)amino)-N-(3-hydroxy-2,6-dimethylphenyl)thiazole-5-carboxamide] |  |  |  | 50 to 1000 nM | > 11000 nM | X (100-<1000 fold)
15 | Cc1ccc(O)c(C)c1NC(=O)c1cnc(Nc2ccn(CC(=O)N3CC4(CNC4)C3)n2)s1 [BAA-200, 2-[[1-[2-(2,6-Diazaspiro[3.3]heptan-2-yl)-2-oxo-ethyl]pyrazol-3-yl]amino]-N-(3-hydroxy-2,6-dimethyl-phenyl)thiazole-5-carboxamide 2,2,2-trifluoroacetate] |  |  |  | < 50 nM | > 11000 nM | X (100-<1000 fold)
16 | Cc1ccc(O)c(C)c1NC(=O)c1cnc(Nc2cc(C(C)(C)O)n(C)n2)s1 [BAA-256, N-(3-hydroxy-2,6-dimethylphenyl)-2-((5-(2-hydroxypropan-2-yl)-1-methyl-1H-pyrazol-3-yl)amino)thiazole-5-carboxamide] |  |  |  | < 50 nM | 1000 to 11000 nM | W (10-<100 fold)
17 | Cc1cc(Nc2ccc(F)cc2)nnc1Nc1ncc(C(=O)Nc2c(C)ccc(O)c2C)s1 [BAA-324, 2-((6-((4-fluorophenyl)amino)-4-methylpyridazin-3-yl)amino)-N-(3-hydroxy-2,6-dimethylphenyl)thiazole-5-carboxamide] |  |  |  | 50 to 1000 nM | > 11000 nM | X (100-<1000 fold)
18 | Cc1ccc(O)c(C)c1NC(=O)c1cnc(Nc2ncccc2C#N)s1 [BAA-408, 2-((3-cyanopyridin-2-yl)amino)-N-(3-hydroxy-2,6-dimethylphenyl)thiazole-5-carboxamide] | 50 to 1000 nM | > 11000 nM | X (100-<1000 fold) |  |  | 
19 | Cc1ccc(O)c(C)c1NC(=O)c1cnc(NCc2cccnc2)s1 [BAA-345, N-(3-hydroxy-2,6-dimethylphenyl)-2-((pyridin-3-ylmethyl)amino)thiazole-5-carboxamide] |  |  |  | 50 to 1000 nM | > 11000 nM | Y (1000-5000 fold)
20 | Cc1ccc(O)c(C)c1NC(=O)c1cnc(NCc2nccn2C)s1 [BAA-362, N-(3-hydroxy-2,6-dimethylphenyl)-2-(((1-methyl-1H-imidazol-2-yl)methyl)amino)thiazole-5-carboxamide] |  |  |  | 1000 to 11000 nM | > 11000 nM | W (10-<100 fold)
21 | Cc1ccc(O)c(C)c1NC(=O)c1cnc(Nc2ccn(CC(=O)N3CCN(C(=O)OC(C)(C)C)CC3)n2)s1 [BAA-140, tert-butyl 4-[2-[3-[5-[(3-hydroxy-2,6-dimethyl-phenyl)carbamoyl]thiazol-2-ylamino]pyrazol-1-yl]acetyl]piperazine-1-carboxylate] |  |  |  | < 50 nM | > 11000 nM | Y (1000-5000 fold)
22 | Cc1ccc(O)c(C)c1NC(=O)c1cnc(Nc2ccn(CCN)n2)s1 [BAA-053, 2-[[1-(2-Aminoethyl)pyrazol-3-yl]amino]-N-(3-hydroxy-2,6-dimethyl-phenyl)thiazole-5-carboxamide] |  |  |  | 50 to 1000 nM | 1000 to 11000 nM | W (10-<100 fold)
23 | Cc1ccc(O)c(C)c1NC(=O)c1cnc(Nc2nc(Cl)ccc2C(F)(F)F)s1 [BAA-405, 2-((6-chloro-3-(trifluoromethyl)pyridin-2-yl)amino)-N-(3-hydroxy-2,6-dimethylphenyl)thiazole-5-carboxamide] | 50 to 1000 nM | > 11000 nM | X (100-<1000 fold) |  |  | 
24 | COc1c(Cl)ncnc1Nc1ncc(C(=O)Nc2c(C)ccc(O)c2C)s1 [BAA-562, 2-((6-chloro-5-methoxypyrimidin-4-yl)amino)-N-(3-hydroxy-2,6-dimethylphenyl)thiazole-5-carboxamide] | < 50 nM | > 11000 nM | Y (1000-5000 fold) |  |  | 
25 | Cc1ccc(O)c(C)c1NC(=O)c1sc(Nc2ccn(C)n2)nc1N [BAA-219, 4-Amino-N-(3-hydroxy-2,6-dimethyl-phenyl)-2-[(1-methylpyrazol-3-yl)amino]thiazole-5-carboxamide] |  |  |  | 1000 to 11000 nM | 1000 to 11000 nM | V (3-<10 fold)
26 | Cc1ccc(O)c(C)c1NC(=O)c1cnc(Nc2ccn(CCCN3CCOCC3)n2)s1 [BAA-101] |  |  |  | 50 to 1000 nM | > 11000 nM | >X (100-<1000 fold)
27 | Cc1ccc(O)c(C)c1NC(=O)c1cnc(Nc2ccn([C@@H]3CCN(C(=O)CC(C)(C)C)C3)n2)s1 [BAA-081, 2-[[1-[(3R)-1-(3,3-dimethylbutanoyl)pyrrolidin-3-yl]pyrazol-3-yl]amino]-N-(3-hydroxy-2,6-dimethyl-phenyl)thiazole-5-carboxamide] |  |  |  | 50 to 1000 nM | > 11000 nM | >X (100-<1000 fold)
